According to patent publication US5372816A, “Trehalostatin and process for the preparation thereof” (Suntory Limited, priority 1989, dated 1994):

What was measured:
[1] = tested on: Trehalase (Aldrichina grahami); experiment: Enzyme inhibition spectrum: trehalase (Aldrichina grahami); assay type: biochemical
Protocol: 10 μl of an inhibitor solution and 10 μl of a trehalase solution (trehalase collected from Aldrichina grahami) were mixed. After 5 minutes incubation at 37° C., 80 μl of a 5 mM trehalose and 50 mM phosphate buffer solution (pH 6.5) was added, followed by an additional one-hour incubation at 37° C. Thereafter, 10 μl of a 50% trichloroacetic acid solution was added to terminate the reaction. Glucose formed in the reaction solution was determined by a new blood sugar test manufactured by Boehringer-Mannheim Ltd. The amount of the enzyme was such that absorbance of the wavelength ([…]) used in the glucose determination when conducted according to the above method without adding the inhibitor would become 1.0. The Trehalostatin concentration which can achieve 50% inhibition of enzyme (trehalase) activity in the above determination method was expressed as 1 unit/ml.
Each enzyme (200 μl) is incubated with Trehalostatin (0.01-50 μg) in 0.05 M acetate (pH 5-6) or phosphate (pH 6-7) buffer solution at 37° C. for 5 minutes. Then 20 μl of the resulting solution is collected and added with a substrate to a final concentration shown in the Table, making the total volume of the solution 100 μl. […]
(§1) (A) The glucose produced was determined by the new blood sugar test devised by Boehringer-Mannheim Ltd.

[2] = tested on: Trehalase (Chaetomium aureum); experiment: Enzyme inhibition spectrum: trehalase (Chaetomium aureum); assay type: biochemical; settings: enzyme 15 μg; pH 5.5, 5 mM trehalase; measuring method A
Protocol: (§2) Each enzyme (200 μl) is incubated with Trehalostatin (0.01-50 μg) in 0.05 M acetate (pH 5-6) or phosphate (pH 6-7) buffer solution at 37° C. for 5 minutes. Then 20 μl of the resulting solution is collected and added with a substrate to a final concentration shown in the Table, making the total volume of the solution 100 μl. The mixture is incubated at 37° C. for 10 minutes and then incubated in a boiling water bath for 3 minutes to terminate the reaction.
(§3) Determination of activity was made by measuring the increase of the product in the reaction system according to the following methods A-C.
(§4) The quantity of Trehalostatin which can effect 50% inhibition of enzyme activity under the above-described conditions was indicated as ID50.
as §1

[3] = molecular target: T1, Trehalase (bovine colonic mucosa) (Bos taurus, UniProt E1B8N4); experiment: Enzyme inhibition spectrum: trehalase (bovine colonic mucosa); assay type: biochemical; settings: enzyme 2500 μg; pH 5.5, 5 mM trehalase; measuring method A
T1 construct: mucosal acetone powder Sigma (M2766); purchased Sigma M2766; host or cells: bovine colonic mucosa, acetone powder
T1 sequence (E1B8N4 24-579): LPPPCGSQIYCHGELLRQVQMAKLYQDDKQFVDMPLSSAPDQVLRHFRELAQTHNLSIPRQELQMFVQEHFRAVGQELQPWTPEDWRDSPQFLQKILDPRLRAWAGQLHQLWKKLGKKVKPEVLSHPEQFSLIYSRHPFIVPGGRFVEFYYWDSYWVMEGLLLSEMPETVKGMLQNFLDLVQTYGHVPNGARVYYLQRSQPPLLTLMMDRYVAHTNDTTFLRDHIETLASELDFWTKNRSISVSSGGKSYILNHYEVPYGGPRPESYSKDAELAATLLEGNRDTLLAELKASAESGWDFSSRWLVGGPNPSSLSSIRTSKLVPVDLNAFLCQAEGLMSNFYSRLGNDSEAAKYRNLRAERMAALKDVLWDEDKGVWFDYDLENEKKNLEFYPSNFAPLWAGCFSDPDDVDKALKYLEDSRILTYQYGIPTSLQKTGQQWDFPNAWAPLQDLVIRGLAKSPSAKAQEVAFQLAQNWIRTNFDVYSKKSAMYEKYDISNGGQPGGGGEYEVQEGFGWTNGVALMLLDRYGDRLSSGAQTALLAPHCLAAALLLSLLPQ
Protocol: as §2, §3, §4, §1

[4] = molecular target: T2, Trehalase (swine kidney) (Sus scrofa, UniProt I3LIR5); experiment: Enzyme inhibition spectrum: trehalase (swine kidney); assay type: biochemical; settings: enzyme 1.1 unit (nmol glucose/min); pH 6.5, 5 mM trehalase; measuring method A
T2 construct: purchased Sigma M8778; host or cells: swine kidney
T2 sequence (I3LIR5 24-583): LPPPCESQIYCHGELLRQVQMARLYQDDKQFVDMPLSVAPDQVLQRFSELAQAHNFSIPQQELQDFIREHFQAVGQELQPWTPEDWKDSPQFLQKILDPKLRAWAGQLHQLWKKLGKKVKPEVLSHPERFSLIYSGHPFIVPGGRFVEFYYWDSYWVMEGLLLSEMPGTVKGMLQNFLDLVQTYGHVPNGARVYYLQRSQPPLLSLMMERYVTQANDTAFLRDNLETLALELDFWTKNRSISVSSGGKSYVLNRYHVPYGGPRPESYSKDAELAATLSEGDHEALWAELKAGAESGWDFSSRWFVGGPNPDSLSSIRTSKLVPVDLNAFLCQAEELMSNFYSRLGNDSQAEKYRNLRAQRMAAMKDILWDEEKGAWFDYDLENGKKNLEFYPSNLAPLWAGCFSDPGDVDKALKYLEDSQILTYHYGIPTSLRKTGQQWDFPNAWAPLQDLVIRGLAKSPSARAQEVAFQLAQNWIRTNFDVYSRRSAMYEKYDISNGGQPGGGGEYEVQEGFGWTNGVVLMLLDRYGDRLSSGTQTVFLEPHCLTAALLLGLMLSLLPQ
Protocol: as §2, §3, §4, §1

[5] = molecular target: T3, α-glycosidase (yeast) (Saccharomyces cerevisiae, UniProt P53341); experiment: Enzyme inhibition spectrum: α-glycosidase (yeast); assay type: biochemical; settings: enzyme 1 μg; pH 7.1, 5 mM P-nitrophenyl glycoside; measuring method A
T3 construct: purchased TOYOBO Co., Ltd; host or cells: yeast
Protocol: as §2, §3, §4, §1

[6] = molecular target: T4, β-glycosidase (Asp. aculeatus) (Aspergillus aculeatus, UniProt P48825); experiment: Enzyme inhibition spectrum: β-glycosidase (Asp. aculeatus); assay type: biochemical; settings: enzyme 15 μg; pH 5.0, 0.5% salicin; measuring method A
T4 construct: a crude enzyme (prepared by University of Osaka Prefecture); host or cells: Aspergillus aculeatus
Protocol: as §2, §3, §4, §1

[7] = tested on: Gluco amylase (almond); experiment: Enzyme inhibition spectrum: Gluco amylase (almond), salicin substrate; assay type: biochemical; set-up: key: ++: ID50 ≤ 1.0 μg; +: ID50 ≥ 1.0 μg; -: no inhibition; settings: enzyme 10 μg; pH 5.0, 0.5% salicin; measuring method A
Protocol: as §2, §3, §4, §1

[8] = tested on: Gluco amylase (Rhizopus niveus); experiment: Enzyme inhibition spectrum: Gluco amylase (Rhizopus niveus); assay type: biochemical; set-up: key: ++: ID50 ≤ 1.0 μg; +: ID50 ≥ 1.0 μg; -: no inhibition; settings: enzyme 2 μg; pH 5.5, 0.5% starch; measuring method A
Protocol: as §2, §3, §4, §1

[9] = tested on: exo-β-1,3-glucanase; experiment: Enzyme inhibition spectrum: exo-β-1,3-glucanase; assay type: biochemical; set-up: key: ++: ID50 ≤ 1.0 μg; +: ID50 ≥ 1.0 μg; -: no inhibition; settings: enzyme 15 μg; pH 6.0, 0.1% laminarin; measuring method B
Protocol: as §2, §3, §4
(B) An amount of glucose produced was determined according to the method shown in D. R. Barras and B. A. Stone, Biochim. Biophys. Acta, 191, 329 (1969).

[10] = tested on: avicelase (Asp. aculeatus); experiment: Enzyme inhibition spectrum: avicelase (Asp. aculeatus); assay type: biochemical; set-up: key: ++: ID50 ≤ 1.0 μg; +: ID50 ≥ 1.0 μg; -: no inhibition; settings: enzyme 2000 μg; pH 5.0, 0.5% avicel; measuring method C
Protocol: as §2, §3, §4
(§5) (C) The increase of an amount of reducing sugar produced was measured according to the method shown in J. A. Thoma et al., The Enzyme, 3rd. ed., Ch. 5, pp. 115-189 (1971).

[11] = molecular target: Bacterial saccharifying amylase (Bacillus subtilis, UniProt P00691); experiment: Enzyme inhibition spectrum: bacterial saccharifying amylase; assay type: biochemical; set-up: key: ++: ID50 ≤ 1.0 μg; +: ID50 ≥ 1.0 μg; -: no inhibition; settings: enzyme 4 μg; pH 5.0, 0.5% starch; measuring method C
Protocol: as §2, §3, §4, §5

[12] = molecular target: Bacterial liquefying amylase (Bacillus amyloliquefaciens, UniProt P00692); experiment: Enzyme inhibition spectrum: bacterial liquefying amylase; assay type: biochemical; set-up: key: ++: ID50 ≤ 1.0 μg; +: ID50 ≥ 1.0 μg; -: no inhibition; settings: enzyme 0.4 μg; pH 5.0, 0.5% starch; measuring method C
Protocol: as §2, §3, §4, §5

[13] = molecular target: T5, β-amylase (sweet potato) (Ipomoea batatas, UniProt P10537); experiment: Enzyme inhibition spectrum: β-amylase (sweet potato); assay type: biochemical; set-up: key: ++: ID50 ≤ 1.0 μg; +: ID50 ≥ 1.0 μg; -: no inhibition; settings: enzyme 12.5 μg; pH 5.0, 0.5% starch; measuring method C
T5 construct: purchased Sigma; host or cells: sweet potato
Protocol: as §2, §3, §4, §5

[14] = tested on: Invertase (bovine colonic mucosa); experiment: Enzyme inhibition spectrum: invertase (bovine colonic mucosa); assay type: biochemical; set-up: key: ++: ID50 ≤ 1.0 μg; +: ID50 ≥ 1.0 μg; -: no inhibition; settings: enzyme 5000 μg; pH 6.0, 0.1% sucrose; measuring method A
Protocol: as §2, §3, §4, §1

[15] = molecular target: T6, Taka-amylase A (yeast) (Saccharomyces cerevisiae, UniProt P00724); experiment: Enzyme inhibition spectrum: Taka-amylase A (yeast), sucrose substrate; assay type: biochemical; set-up: key: ++: ID50 ≤ 1.0 μg; +: ID50 ≥ 1.0 μg; -: no inhibition; settings: enzyme 100 μg; pH 5.5, 0.1% sucrose; measuring method A
T6 sequence (P00724 20-532): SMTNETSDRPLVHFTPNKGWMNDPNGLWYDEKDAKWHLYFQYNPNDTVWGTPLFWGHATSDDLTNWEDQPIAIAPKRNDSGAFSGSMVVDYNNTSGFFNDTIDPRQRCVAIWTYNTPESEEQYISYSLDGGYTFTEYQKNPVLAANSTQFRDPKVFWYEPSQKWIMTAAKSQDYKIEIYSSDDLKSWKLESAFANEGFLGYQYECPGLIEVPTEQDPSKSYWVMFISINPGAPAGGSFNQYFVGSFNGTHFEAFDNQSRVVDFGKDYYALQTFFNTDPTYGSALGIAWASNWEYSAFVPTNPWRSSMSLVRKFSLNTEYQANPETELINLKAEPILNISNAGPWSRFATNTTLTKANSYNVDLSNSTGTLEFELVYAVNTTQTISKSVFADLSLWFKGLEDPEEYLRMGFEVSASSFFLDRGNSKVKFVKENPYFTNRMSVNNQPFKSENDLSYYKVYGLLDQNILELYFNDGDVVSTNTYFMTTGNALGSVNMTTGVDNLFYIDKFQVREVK
Protocol: as §2, §3, §4, §1

[16] = molecular target: T7, Taka-amylase A (Aspergillus oryzae, UniProt P0C1B3); experiment: Enzyme inhibition spectrum: Taka-amylase A, starch substrate; assay type: biochemical; set-up: key: ++: ID50 ≤ 1.0 μg; +: ID50 ≥ 1.0 μg; -: no inhibition; settings: enzyme 0.5 μg; pH 5.5, 0.5% starch; measuring method printed 69
T7 construct: purchased SANKYO Co., Ltd
Protocol: as §2, §3, §4

[17] = tested on: Carboxymethyl-cellulase (Asp. aculeatus); experiment: Enzyme inhibition spectrum: carboxymethyl-cellulase (Asp. aculeatus); assay type: biochemical; set-up: key: ++: ID50 ≤ 1.0 μg; +: ID50 ≥ 1.0 μg; -: no inhibition; settings: enzyme 100 μg; pH 5.0, 0.5% CM cellulose; measuring method C
Protocol: as §2, §3, §4, §5

[18] = molecular target: T8, Isoamylase (Pseudomonas amyloderamosa, UniProt P10342); experiment: Enzyme inhibition spectrum: isoamylase; assay type: biochemical; set-up: key: ++: ID50 ≤ 1.0 μg; +: ID50 ≥ 1.0 μg; -: no inhibition; settings: enzyme 100 μg; pH 5.5, 0.5% starch; measuring method C
T8 construct: purchased Shin Nippon Kagaku Co., Ltd
T8 sequence (P10342 27-776): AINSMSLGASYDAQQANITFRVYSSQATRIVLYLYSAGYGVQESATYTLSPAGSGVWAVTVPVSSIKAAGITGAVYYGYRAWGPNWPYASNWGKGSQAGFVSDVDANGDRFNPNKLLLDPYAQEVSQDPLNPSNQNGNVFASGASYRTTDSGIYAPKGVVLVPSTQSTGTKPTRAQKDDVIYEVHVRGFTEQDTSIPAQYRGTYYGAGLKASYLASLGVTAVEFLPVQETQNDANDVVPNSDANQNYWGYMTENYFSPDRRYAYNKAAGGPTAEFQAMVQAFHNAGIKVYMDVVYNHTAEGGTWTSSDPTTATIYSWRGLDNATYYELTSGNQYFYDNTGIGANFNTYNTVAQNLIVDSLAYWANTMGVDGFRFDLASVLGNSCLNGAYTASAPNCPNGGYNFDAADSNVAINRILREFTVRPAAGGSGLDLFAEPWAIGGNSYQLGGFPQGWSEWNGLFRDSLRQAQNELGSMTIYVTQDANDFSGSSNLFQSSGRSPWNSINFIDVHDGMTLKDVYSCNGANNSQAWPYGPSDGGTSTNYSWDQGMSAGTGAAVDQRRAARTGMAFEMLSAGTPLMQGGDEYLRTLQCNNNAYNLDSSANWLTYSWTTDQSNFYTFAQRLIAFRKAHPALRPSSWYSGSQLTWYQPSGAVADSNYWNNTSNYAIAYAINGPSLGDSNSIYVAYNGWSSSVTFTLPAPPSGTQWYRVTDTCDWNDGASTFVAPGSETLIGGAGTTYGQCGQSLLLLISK
Protocol: as §2, §3, §4, §5

[19] = Solubility of Trehalostatin; assay type: physicochemical

T4 sequence (P48825 20-860): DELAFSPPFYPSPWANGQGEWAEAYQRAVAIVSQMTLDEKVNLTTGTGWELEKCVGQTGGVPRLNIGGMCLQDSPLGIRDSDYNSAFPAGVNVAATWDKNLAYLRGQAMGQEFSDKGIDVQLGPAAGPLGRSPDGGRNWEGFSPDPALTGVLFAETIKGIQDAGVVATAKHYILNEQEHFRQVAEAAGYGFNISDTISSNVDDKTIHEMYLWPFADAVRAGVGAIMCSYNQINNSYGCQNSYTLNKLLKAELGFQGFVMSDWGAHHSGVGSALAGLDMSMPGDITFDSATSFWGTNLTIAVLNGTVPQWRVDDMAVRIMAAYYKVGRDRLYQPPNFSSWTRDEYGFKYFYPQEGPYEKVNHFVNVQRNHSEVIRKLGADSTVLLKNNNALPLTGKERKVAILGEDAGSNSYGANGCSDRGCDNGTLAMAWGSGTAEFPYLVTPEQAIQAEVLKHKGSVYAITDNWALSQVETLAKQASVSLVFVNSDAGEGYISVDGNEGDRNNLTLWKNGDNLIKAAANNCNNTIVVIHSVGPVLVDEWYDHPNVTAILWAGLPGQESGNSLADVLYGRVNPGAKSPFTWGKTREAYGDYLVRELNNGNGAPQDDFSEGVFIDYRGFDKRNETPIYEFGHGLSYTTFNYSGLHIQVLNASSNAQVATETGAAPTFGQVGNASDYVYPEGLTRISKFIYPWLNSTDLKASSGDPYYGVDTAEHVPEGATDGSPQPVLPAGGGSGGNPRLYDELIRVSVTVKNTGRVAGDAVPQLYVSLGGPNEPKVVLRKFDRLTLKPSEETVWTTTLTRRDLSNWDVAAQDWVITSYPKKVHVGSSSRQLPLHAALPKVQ
T5 sequence (P10537 whole entry): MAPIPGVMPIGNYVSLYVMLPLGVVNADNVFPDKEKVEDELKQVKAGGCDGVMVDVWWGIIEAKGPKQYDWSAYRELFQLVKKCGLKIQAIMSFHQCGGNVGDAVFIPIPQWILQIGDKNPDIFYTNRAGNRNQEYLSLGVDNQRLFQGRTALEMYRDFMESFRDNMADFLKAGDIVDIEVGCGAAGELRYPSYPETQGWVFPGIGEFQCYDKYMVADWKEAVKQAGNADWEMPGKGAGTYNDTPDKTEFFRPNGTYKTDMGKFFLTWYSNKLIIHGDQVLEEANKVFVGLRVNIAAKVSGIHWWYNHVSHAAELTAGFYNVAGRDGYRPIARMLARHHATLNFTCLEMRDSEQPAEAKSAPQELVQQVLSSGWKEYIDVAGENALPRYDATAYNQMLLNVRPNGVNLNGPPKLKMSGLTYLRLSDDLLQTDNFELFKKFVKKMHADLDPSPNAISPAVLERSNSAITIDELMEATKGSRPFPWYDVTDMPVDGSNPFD
Chain of Bacterial liquefying amylase (P00692 32-514): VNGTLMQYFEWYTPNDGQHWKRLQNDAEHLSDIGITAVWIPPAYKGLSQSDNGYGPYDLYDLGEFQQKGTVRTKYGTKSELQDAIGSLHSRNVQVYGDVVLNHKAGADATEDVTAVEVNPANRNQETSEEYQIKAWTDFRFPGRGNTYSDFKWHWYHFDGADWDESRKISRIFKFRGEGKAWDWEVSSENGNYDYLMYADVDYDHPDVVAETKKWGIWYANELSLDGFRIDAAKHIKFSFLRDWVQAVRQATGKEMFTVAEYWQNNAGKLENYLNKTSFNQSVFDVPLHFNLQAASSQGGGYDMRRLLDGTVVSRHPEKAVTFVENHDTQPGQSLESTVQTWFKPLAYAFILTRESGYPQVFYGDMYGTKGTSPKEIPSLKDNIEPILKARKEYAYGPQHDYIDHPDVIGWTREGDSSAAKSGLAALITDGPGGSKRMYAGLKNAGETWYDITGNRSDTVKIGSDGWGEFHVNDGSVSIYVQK
T3 sequence (P53341 whole entry): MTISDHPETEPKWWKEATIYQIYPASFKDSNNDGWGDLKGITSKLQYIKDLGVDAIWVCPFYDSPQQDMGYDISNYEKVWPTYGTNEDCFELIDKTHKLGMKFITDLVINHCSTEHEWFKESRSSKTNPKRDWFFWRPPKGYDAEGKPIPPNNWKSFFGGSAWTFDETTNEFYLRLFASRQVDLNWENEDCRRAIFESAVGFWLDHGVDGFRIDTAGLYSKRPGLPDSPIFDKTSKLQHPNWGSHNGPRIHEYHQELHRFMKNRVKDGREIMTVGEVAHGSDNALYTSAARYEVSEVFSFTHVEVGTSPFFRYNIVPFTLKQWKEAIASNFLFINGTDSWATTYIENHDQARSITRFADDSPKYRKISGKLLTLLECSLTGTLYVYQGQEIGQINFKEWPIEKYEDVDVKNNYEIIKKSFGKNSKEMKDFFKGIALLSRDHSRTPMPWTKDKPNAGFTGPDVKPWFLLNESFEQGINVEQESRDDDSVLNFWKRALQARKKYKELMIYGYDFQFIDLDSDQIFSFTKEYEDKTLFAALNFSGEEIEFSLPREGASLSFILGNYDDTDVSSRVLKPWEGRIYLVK
Chain of Bacterial saccharifying amylase (P00691 42-659): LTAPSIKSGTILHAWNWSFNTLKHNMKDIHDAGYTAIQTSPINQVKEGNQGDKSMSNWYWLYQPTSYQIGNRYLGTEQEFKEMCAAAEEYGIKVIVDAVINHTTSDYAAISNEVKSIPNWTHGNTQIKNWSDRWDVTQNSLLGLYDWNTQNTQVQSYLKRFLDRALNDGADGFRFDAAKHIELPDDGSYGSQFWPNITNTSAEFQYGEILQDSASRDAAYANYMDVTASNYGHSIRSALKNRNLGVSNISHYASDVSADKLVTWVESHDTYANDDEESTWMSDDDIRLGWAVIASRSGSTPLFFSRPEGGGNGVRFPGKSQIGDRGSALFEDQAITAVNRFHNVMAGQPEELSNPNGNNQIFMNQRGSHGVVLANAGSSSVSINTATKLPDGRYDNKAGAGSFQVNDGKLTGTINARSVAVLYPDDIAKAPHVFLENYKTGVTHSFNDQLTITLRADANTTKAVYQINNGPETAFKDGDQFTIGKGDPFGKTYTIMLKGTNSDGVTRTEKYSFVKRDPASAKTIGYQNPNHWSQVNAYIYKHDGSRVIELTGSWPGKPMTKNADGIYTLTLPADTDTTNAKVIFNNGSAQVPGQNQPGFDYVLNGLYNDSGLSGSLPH

OC[C@H]1O[C@H](N=C2NC3C(O2)C(O)C(O)C3(O)CO)[C@H](O)[C@@H](O)[C@@H]1O (stereo partly drawn) [Trehalostatin]
Action (ID50) ([1]; enzyme 24 unit (nmol glucose/min), pH 5.5, 5 mM trehalase, measuring method A): ++ (ID50 ≤ 1.0 μg)
inhibitory effect against trehalase in insects ([1]; trehalase in insects, especially Aldrichina grahami, statement in words): effective inhibitory effect against trehalase in insects, especially in Aldrichina grahami, even at a very low concentration
Action (ID50) [2]: + (ID50 ≥ 1.0 μg)
Action (ID50) [3]: + (ID50 ≥ 1.0 μg)
Action (ID50) [4]: + (ID50 ≥ 1.0 μg)
Action (ID50) [5]: + (ID50 ≥ 1.0 μg)
Action (ID50) [6]: + (ID50 ≥ 1.0 μg)
Action (ID50) [7]: -
Action (ID50) [8]: -
Action (ID50) [9]: -
Action (ID50) [10]: -
Action (ID50) [11]: -
Action (ID50) [12]: -
Action (ID50) [13]: -
Action (ID50) [14]: -
Action (ID50) [15]: -
Action (ID50) [16]: -
Action (ID50) [17]: -
Action (ID50) [18]: -
Solubility ([19]; in hexane, benzene, ethers and petroleum ether): hardly or only slightly soluble
Solubility ([19]; in water): soluble in water
